In paper PMC8296573, “Synthesis and Biological Evaluation of Fingolimod Derivatives as Antibacterial Agents” (ACS Omega, 2021):
Values after ≈ are worked out from the molar mass of the structure shown. Read-outs that look alike come from different tables or passages of the source.

Legend:
S. aureus ATCC 25923 [1] = assay: Antibacterial activity, pre-exposure (planktonic cells and biofilm formation); type: cell-based, Staphylococcus aureus; details: for MIC / inhibition at 5 µM / inhibition at 10 µM / inhibition at 15 µM / inhibition at 25 µM: Staphylococcus aureus, ATCC25923; for inhibition at 5 µM / inhibition at 10 µM / inhibition at 15 µM / inhibition at 25 µM / Average inhibition %, biofilms viability / Average inhibition %, planktonic cells viability: pre-exposure, ± SD
How it was run: (§1)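 Read-outs were turbidity and resazurin reduction for planktonic cells, and resazurin followed by crystal violet biomass (A595) for biofilms. Compounds were present from inoculation onward, with 18 h aerobic growth at 37 °C under shaking.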

A. baumannii NCTC 13423 = assay: Antibacterial activity, pre-exposure; type: cell-based, Acinetobacter baumannii; details: for Average inhibition %, biofilms viability / Average inhibition %, planktonic cells viability / inhibition at 10 µM / inhibition at 15 µM / inhibition at 25 µM / inhibition at 50 µM: A. baumannii NCTC 13423, pre-exposure, ± SD; for inhibition at 10 µM / inhibition at 15 µM / inhibition at 25 µM / inhibition at 50 µM: Acinetobacter baumannii, NCTC13423
How it was run: as §1

S. aureus ATCC 25923 [2] = assay: Antibacterial activity, post-exposure on preformed 18-h-old biofilms; type: cell-based, Staphylococcus aureus; details: ± SD; for inhibition at 25 µM / inhibition at 50 µM / inhibition at 100 µM / inhibition at 200 µM: Staphylococcus aureus; for inhibition at 25 µM: ATCC25923, 25 µM; for inhibition at 50 µM: ATCC25923, 50 µM; for inhibition at 100 µM: ATCC25923, 100 µM; for inhibition at 200 µM: ATCC25923, 200 µM
How it was run: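 Biofilms grown 18 h without compound, medium then replaced and compound added for a further 24 h. Planktonic OD and resazurin (20 μM final) fluorescence (ex 560/em 590 nm) read; washed biofilms stained with 20 μM resazurin 30 min at 37 °C, then ethanol-fixed and crystal violet-stained, absorbance 595 nm.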

P. aeruginosa ATCC 9027 = assay: Antibacterial activity, pre-exposure; type: cell-based, Pseudomonas aeruginosa; details: for Average inhibition %, biofilms viability / Average inhibition %, planktonic cells viability / inhibition at 50 µM / inhibition at 100 µM / inhibition at 150 µM / inhibition at 200 µM: P. aeruginosa ATCC 9027, pre-exposure, ± SD; for inhibition at 50 µM / inhibition at 100 µM / inhibition at 150 µM / inhibition at 200 µM: Pseudomonas aeruginosa, ATCC9027
How it was run: as §1

[3] = 10 µM, read-out: Average inhibition %, biofilms biomass
[4] = 10 µM, read-out: Average inhibition %, planktonic cells turbidity
[5] = 15 µM, read-out: Average inhibition %, biofilms biomass
[6] = 15 µM, read-out: Average inhibition %, planktonic cells turbidity
[7] = 25 µM, read-out: Average inhibition %, biofilms biomass
[8] = 25 µM, read-out: Average inhibition %, planktonic cells turbidity
[9] = 50 µM, read-out: Average inhibition %, biofilms biomass
[10] = 50 µM, read-out: Average inhibition %, planktonic cells turbidity
[11] = read-out: Average inhibition %, biofilms biomass
[12] = read-out: Average inhibition %, planktonic cells turbidity

Structure (SMILES): CCCCCCCCc1ccc2cc(CC(N)(CO)CO)ccc2c1 [Compound 79, 2-Amino-2-[(6-octylnaphthalen-2-yl)methyl]propane-1,3-diol]
- MIC (S. aureus ATCC 25923 [1]; lowest concentration with no visible growth (>90% inhibition of turbidity and viability of planktonic cells), 18 h, read-out: MIC S. aureus ATCC 25923): 10 µM (≈ 3.44 µg/mL)
- inhibition at 5 µM (S. aureus ATCC 25923 [1]; 5 µM, read-out: Average inhibition %, biofilms biomass): 37.5 ± 32.5%
- inhibition at 5 µM (S. aureus ATCC 25923 [1]; 5 µM, read-out: Average inhibition %, planktonic cells turbidity): 15.2 ± 17.2%
- inhibition at 10 µM (S. aureus ATCC 25923 [1]; [3]): 91.3 ± 5.8%
- inhibition at 10 µM (S. aureus ATCC 25923 [1]; [4]): 98.7 ± 0.9%
- inhibition at 15 µM (S. aureus ATCC 25923 [1]; [5]): 92.1 ± 4.9%
- inhibition at 15 µM (S. aureus ATCC 25923 [1]; [6]): 98.7 ± 1%
- inhibition at 25 µM (S. aureus ATCC 25923 [1]; [7]): 92.5 ± 4.2%
- inhibition at 25 µM (S. aureus ATCC 25923 [1]; [8]): 98.5 ± 1%
- MIC (S. aureus ATCC 25923 [1]; read-out: MIC (S. aureus)): 10 µM (≈ 3.44 µg/mL)
- Average inhibition %, biofilms viability (S. aureus ATCC 25923 [1]; 5 µM): 28 ± 2.7%
- Average inhibition %, planktonic cells viability (S. aureus ATCC 25923 [1]; 5 µM): 26.3 ± 24.3%
- Average inhibition %, biofilms viability (S. aureus ATCC 25923 [1]; 10 µM): 98.1 ± 0.5%
- Average inhibition %, planktonic cells viability (S. aureus ATCC 25923 [1]; 10 µM): 99.8 ± 0%
- Average inhibition %, biofilms viability (S. aureus ATCC 25923 [1]; 15 µM): 99.3 ± 0.2%
- Average inhibition %, planktonic cells viability (S. aureus ATCC 25923 [1]; 15 µM): 99.8 ± 0.1%
- Average inhibition %, biofilms viability (S. aureus ATCC 25923 [1]; 25 µM): 99.2 ± 0.3%
- Average inhibition %, planktonic cells viability (S. aureus ATCC 25923 [1]; 25 µM): 99.9 ± 0.2%
- Average inhibition %, biofilms viability (A. baumannii NCTC 13423; 10 µM): 0.3 ± 0.6%
- Average inhibition %, planktonic cells viability (A. baumannii NCTC 13423; 10 µM): 4.7 ± 4.7%
- Average inhibition %, biofilms viability (A. baumannii NCTC 13423; 15 µM): 0.7 ± 0.6%
- Average inhibition %, planktonic cells viability (A. baumannii NCTC 13423; 15 µM): 4.2 ± 4.8%
- Average inhibition %, biofilms viability (A. baumannii NCTC 13423; 25 µM): 1.2 ± 1.5%
- Average inhibition %, planktonic cells viability (A. baumannii NCTC 13423; 25 µM): 0 ± 0%
- Average inhibition %, biofilms viability (A. baumannii NCTC 13423; 50 µM): 6.5 ± 6.4%
- Average inhibition %, planktonic cells viability (A. baumannii NCTC 13423; 50 µM): 0 ± 0%
- inhibition at 10 µM (A. baumannii NCTC 13423; [3]): 1.7 ± 3%
- inhibition at 10 µM (A. baumannii NCTC 13423; [4]): 0%
- inhibition at 15 µM (A. baumannii NCTC 13423; [5]): 3.3 ± 5.7%
- inhibition at 15 µM (A. baumannii NCTC 13423; [6]): 0%
- inhibition at 25 µM (A. baumannii NCTC 13423; [7]): 0.2 ± 0.4%
- inhibition at 25 µM (A. baumannii NCTC 13423; [8]): 0%
- inhibition at 50 µM (A. baumannii NCTC 13423; [9]): 3.3 ± 5.1%
- inhibition at 50 µM (A. baumannii NCTC 13423; [10]): 0.3 ± 0.6%
- MIC A. baumannii NCTC 13423 (A. baumannii NCTC 13423; pre-exposure, Inactive = no activity up to 50 μM, > = some inhibition but no MIC reached): Inactive
- Average inhibition %, biofilms viability (S. aureus ATCC 25923 [2]; 25 µM): 15.4 ± 3.3%
- Average inhibition %, planktonic cells viability (S. aureus ATCC 25923 [2]; 25 µM): 0.3 ± 0.6%
- Average inhibition %, biofilms viability (S. aureus ATCC 25923 [2]; 50 µM): 23.3 ± 4.3%
- Average inhibition %, planktonic cells viability (S. aureus ATCC 25923 [2]; 50 µM): 0 ± 0%
- Average inhibition %, biofilms viability (S. aureus ATCC 25923 [2]; 100 µM): 28.7 ± 6.3%
- Average inhibition %, planktonic cells viability (S. aureus ATCC 25923 [2]; 100 µM): 23.6 ± 15.5%
- Average inhibition %, biofilms viability (S. aureus ATCC 25923 [2]; 200 µM): 28.8 ± 6.5%
- Average inhibition %, planktonic cells viability (S. aureus ATCC 25923 [2]; 200 µM): 57 ± 23.8%
- inhibition at 25 µM (S. aureus ATCC 25923 [2]; [11]): 21.5 ± 4.7%
- inhibition at 25 µM (S. aureus ATCC 25923 [2]; [12]): 16.1 ± 25.9%
- inhibition at 50 µM (S. aureus ATCC 25923 [2]; [11]): 29.7 ± 10.3%
- inhibition at 50 µM (S. aureus ATCC 25923 [2]; [12]): 12.4 ± 8.3%
- inhibition at 100 µM (S. aureus ATCC 25923 [2]; [11]): 36.6 ± 6.4%
- inhibition at 100 µM (S. aureus ATCC 25923 [2]; [12]): 25.7 ± 16.3%
- inhibition at 200 µM (S. aureus ATCC 25923 [2]; [11]): 43.1 ± 20.9%
- inhibition at 200 µM (S. aureus ATCC 25923 [2]; [12]): 31.5 ± 11.1%
- Average inhibition %, biofilms viability (P. aeruginosa ATCC 9027; 50 µM): 0 ± 0%
- Average inhibition %, planktonic cells viability (P. aeruginosa ATCC 9027; 50 µM): 3.9 ± 3.6%
- Average inhibition %, biofilms viability (P. aeruginosa ATCC 9027; 100 µM): 0 ± 0%
- Average inhibition %, planktonic cells viability (P. aeruginosa ATCC 9027; 100 µM): 1.9 ± 2.3%
- Average inhibition %, biofilms viability (P. aeruginosa ATCC 9027; 150 µM): 0.5 ± 0.9%
- Average inhibition %, planktonic cells viability (P. aeruginosa ATCC 9027; 150 µM): 4.2 ± 7.4%
- Average inhibition %, biofilms viability (P. aeruginosa ATCC 9027; 200 µM): 2.1 ± 3.6%
- Average inhibition %, planktonic cells viability (P. aeruginosa ATCC 9027; 200 µM): 7.6 ± 13.1%
- inhibition at 50 µM (P. aeruginosa ATCC 9027; [9]): 1.2 ± 1.5%
- inhibition at 50 µM (P. aeruginosa ATCC 9027; [10]): 23.6 ± 9%
- inhibition at 100 µM (P. aeruginosa ATCC 9027; 100 µM, read-out: Average inhibition %, biofilms biomass): 3.6 ± 4.7%
- inhibition at 100 µM (P. aeruginosa ATCC 9027; 100 µM, read-out: Average inhibition %, planktonic cells turbidity): 23 ± 3.8%
- inhibition at 150 µM (P. aeruginosa ATCC 9027; 150 µM, read-out: Average inhibition %, biofilms biomass): 6.1 ± 5.3%
- inhibition at 150 µM (P. aeruginosa ATCC 9027; 150 µM, read-out: Average inhibition %, planktonic cells turbidity): 28 ± 2.4%
- inhibition at 200 µM (P. aeruginosa ATCC 9027; 200 µM, read-out: Average inhibition %, biofilms biomass): 0%
- inhibition at 200 µM (P. aeruginosa ATCC 9027; 200 µM, read-out: Average inhibition %, planktonic cells turbidity): 25 ± 2.8%
- MIC P. aeruginosa ATCC 9027 (P. aeruginosa ATCC 9027; pre-exposure, Inactive = no activity up to 200 μM, > = some inhibition but no MIC reached): Inactive
